Assay results taken from patent publication US20210196779A1, “Compositions and Methods for Treating Steroid Hormone-Related Diseases or Disorders” (YALE UNIVERSITY, priority 2018, published 2021).

Legend:
Format in all cases: cell-based
22Rv1 cells = test: Cell growth assay, 22Rv1 prostate cancer cells; conditions: in the presence or absence of DHT and DEX
Description: (§1) 22RV1 or LNCaP prostate cancer cells were grown in corning T75 cell culture flasks in RPMI1640 medium supplemented with 5% FBS, 50 μg/ml Kanamycin in a 37° C., 5% CO2 incubator.
(§2) 20,000 cells in 1 ml of medium (phenol red free RPMI1640, 5% charcoal-dialysis FBS, 50 μg/ml Kanamyacin) were seeded per well of a 24-well plate and incubated in a 37° C. incubator with 5% CO2 overnight. Different concentrations of herbal extract were added to each well in order to have final concentrations from 50 μg/ml to 500 μg/ml. […] For glucocorticoid receptor overexpressed LNCaP cells, dexamethasone (50 nM) was used to stimulate glucocorticoid receptor activity. For all breast cancer cells, E2 (10 nM) was used to stimulate ER activity. Control medium without any steroid hormone was used as a control setting. After 4 days of incubation, cells were fixed and stained for 2 h with 0.5% methylene blue in 50% ethanol, followed by washing with tap water to remove unbound dye. Plates were air dried and then cells were dissolved in 1% sarkosyl (sodium lauroyl sarcosinate) by shaking at room temperature for 3 h. […] All experiments were performed in triplicate wells and were repeated at least three times.

LNCaP cells = test: Cell growth assay, LNCaP prostate cancer cells
Description: as §1, §2

[1] = tested on: LNCaP-GR (GR overexpressing) cells; test: Cell growth assay, GR overexpressing LNCaP cells; conditions: DEX stimulated
Description: as §2

GR (stimulated with DEX) = target: T1, GR (stimulated with DEX) (Homo sapiens, UniProt P04150); test: GR driven luciferase activity (DEX) in LNCaP-GR cells; conditions: LNCaP-GR luciferase reporter cells
T1 construct: expressed in transfected cells; host or cells: LNCaP (LNCaP-GR)
T1 sequence (P04150 whole entry): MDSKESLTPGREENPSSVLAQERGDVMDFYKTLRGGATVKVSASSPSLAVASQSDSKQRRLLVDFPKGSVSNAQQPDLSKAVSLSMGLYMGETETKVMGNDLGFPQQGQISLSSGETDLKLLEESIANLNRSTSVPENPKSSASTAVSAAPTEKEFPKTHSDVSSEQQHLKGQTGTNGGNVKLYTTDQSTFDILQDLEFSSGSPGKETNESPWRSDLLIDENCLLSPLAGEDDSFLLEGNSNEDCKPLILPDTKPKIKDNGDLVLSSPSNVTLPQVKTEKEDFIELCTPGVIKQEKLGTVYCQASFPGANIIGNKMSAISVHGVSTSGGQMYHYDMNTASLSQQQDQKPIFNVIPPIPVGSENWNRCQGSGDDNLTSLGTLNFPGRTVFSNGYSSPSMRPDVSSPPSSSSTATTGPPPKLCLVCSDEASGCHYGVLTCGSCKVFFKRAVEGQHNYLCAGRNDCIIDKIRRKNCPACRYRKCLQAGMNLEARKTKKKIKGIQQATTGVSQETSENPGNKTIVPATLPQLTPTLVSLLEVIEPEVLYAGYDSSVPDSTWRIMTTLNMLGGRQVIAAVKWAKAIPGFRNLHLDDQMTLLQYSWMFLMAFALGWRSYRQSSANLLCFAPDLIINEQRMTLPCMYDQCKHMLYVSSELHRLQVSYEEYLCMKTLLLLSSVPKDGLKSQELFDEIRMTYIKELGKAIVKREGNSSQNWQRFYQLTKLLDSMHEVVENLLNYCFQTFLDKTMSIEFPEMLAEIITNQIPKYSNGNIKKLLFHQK
Description: Both LNCaP and GR overexpressing LNCaP cells were carrying luciferase reporters with AR response elements.
(§3) Reporter cells were treated with herbal extracts at 30, 100, 300, and 1000 μg/ml for 24 h in a 37° C.-CO2 incubator. DHT (25 nM) was used to stimulate androgen receptor activity. Dexamethasone (50 nM) was used to stimulate glucocorticoid receptor activity Cells were lysed using luciferase lysis buffer after which luciferase buffer with luciferin was added to generate luminescence. Luminescence was recorded using a luminescence microplate reader.

androgen receptor (AR) = test: PSA-luciferase reporter assay, DHT induced, 22RV1 cells; conditions: equivalent doses, 22RV1 cells in the presence of DHT
Description: 22RV1 or LNCaP prostate cancer cells were used in the screening study. 22RV1 or LNCaP cell lines were stably transfected with PSA promoter-PGL4.2 luciferase reporter. DHT (25 nM) was used to stimulate androgen receptor activity for 24 h.
as §3

Row | SMILES | growth inhibitory effect on 22RV1 cells (in words) (22Rv1 cells) | susceptibility of LNCaP cell growth to treatment (in words) (LNCaP cells; in the absence of DHT) | sensitivity of LNCaP cell growth to treatment (in words) (LNCaP cells; in the presence of DHT) | resistance of LNCaP-GR cell growth (in words) [1] | inhibition of DEX induced transcriptional response (GR (stimulated with DEX)) | inhibitory effect on AR mediated transcriptional response (androgen receptor (AR))
1 | CNC(=O)c1ccc(N2C(=S)N(c3ccc(C#N)c(C(F)(F)F)c3)C(=O)C2(C)C)cc1F [Enzalutamide, reference compound] | resistant | not be susceptible | more sensitive | resistant | but not DEX induced transcriptional response | –
2 | Cc1c(O)cc2c(c1O)C(=O)c1ccc(O)cc1C2=O [TMT, 1,3,6-Trihydroxy-2-methyl-9,10-anthracenedione] | – | – | – | – | – | very weak activity
